Assay results published in PubChem BioAssay AID434951 (Broad Institute, 2010).
The source made the active and inactive calls.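 Rule for the calls: active = a fitted half-maximal concentration EC50 for the rise in nuclear signal no higher than ten times the top dose tested; inconclusive = flat fit with activity between 30% and 70%, or unusable fit; inactive = EC50 beyond ten times the top dose.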

What follows are molecules tested against Hypoxia-inducible factor 1-alpha (Homo sapiens) (UniProt Q16665) (assay: activators of HIF1alpha nuclear accumulation, confirmation, imaging, fluorescence, U2OS GFP-HIF1alpha (AID 434951)). Settings: U2OS GFP-HIF1alpha nuclear intensity, high-content imaging.
Chain of Hypoxia-inducible factor 1-alpha (Homo sapiens) (Q16665 whole entry, looked up): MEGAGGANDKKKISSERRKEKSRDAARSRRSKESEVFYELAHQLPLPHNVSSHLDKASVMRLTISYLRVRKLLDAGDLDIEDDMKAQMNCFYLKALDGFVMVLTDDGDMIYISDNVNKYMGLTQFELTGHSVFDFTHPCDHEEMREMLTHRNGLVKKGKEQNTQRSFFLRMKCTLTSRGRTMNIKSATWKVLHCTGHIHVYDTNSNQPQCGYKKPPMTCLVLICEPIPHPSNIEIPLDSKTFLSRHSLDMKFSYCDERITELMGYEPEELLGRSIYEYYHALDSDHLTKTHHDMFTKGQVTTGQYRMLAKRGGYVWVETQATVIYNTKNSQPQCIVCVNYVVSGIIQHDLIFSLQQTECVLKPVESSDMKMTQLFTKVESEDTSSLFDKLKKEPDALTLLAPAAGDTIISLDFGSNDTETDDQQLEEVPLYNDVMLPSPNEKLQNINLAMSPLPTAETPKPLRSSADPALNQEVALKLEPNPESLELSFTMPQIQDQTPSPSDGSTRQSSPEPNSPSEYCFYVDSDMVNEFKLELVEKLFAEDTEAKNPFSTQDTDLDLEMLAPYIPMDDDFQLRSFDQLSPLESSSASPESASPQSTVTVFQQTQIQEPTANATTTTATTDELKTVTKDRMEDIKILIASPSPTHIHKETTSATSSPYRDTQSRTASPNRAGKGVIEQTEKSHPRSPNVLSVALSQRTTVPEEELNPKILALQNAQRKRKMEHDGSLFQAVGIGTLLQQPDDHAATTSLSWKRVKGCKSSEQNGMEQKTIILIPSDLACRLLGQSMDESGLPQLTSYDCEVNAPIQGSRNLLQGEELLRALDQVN

Compound	EC50
Cn1nnc(NC(=O)c2cccc([N+](=O)[O-])c2)n1	> 35 µM (inactive)
Cc1ccc2nc(SCC(=O)N3CCCCCC3)nc(=O)n2c1	> 35 µM (inactive)
COc1ccc(C(=O)CSc2nncn2C)cc1	> 35 µM (inactive)
CCN(CC)c1ccc(/C=N/NC(=O)c2nnn(-c3nonc3N)c2C(C)C)c(O)c1	3.55 µM
CCN(CC)CCn1nc2c3c(cccc3c1=O)-c1ccccc1-2	> 35 µM (inactive)
CCc1nc(SCC(=O)c2ccccc2)c2ccccc2n1	> 35 µM (inactive)
C1CCC2(CC1)C1=C(CCCC1)Nc1nnnn12	> 35 µM (inactive)
O=C(NCCCn1ccnc1)c1cc(-c2ccccc2)on1	3.8 µM
O=C(N/N=C\c1c(O)ccc2ccccc12)c1ccc(Cn2cccn2)o1	5.3 µM
Cc1ccc(S(=O)(=O)N2CCOC23CCN(C(=O)c2cc(Cl)ccc2Cl)CC3)cc1	> 35 µM (inactive)
O=C(NCC(=O)N(Cc1ccco1)C(C(=O)NC1CCCCC1)c1cccnc1)c1cccs1 (stereo unspecified)	> 35 µM (inactive)
CN1CCN(C2Cc3ccc(F)cc3Sc3cc(F)c(Cl)cc32)CC1 (stereo unspecified)	> 35 µM (inactive)
CCSc1cc(C)nc2c(-c3ccccc3)cnn12	> 35 µM (inactive)
Cc1ccc(Nc2nnc(-c3ccccc3N)o2)cc1C	> 35 µM (inactive)
COc1ccc(C2NC(=S)NC3=C2CCCC3=C2SCCS2)cc1 (stereo unspecified)	17.8 µM
Cc1ccc(C(=O)NC2CC3CCCC(C2)N3Cc2ccccc2)cc1 (stereo unspecified)	> 35 µM (inactive)
O=C(CCc1ccccc1)N/N=C/c1cc(Br)ccc1O	13.2 µM
CC(=O)Cn1c(=O)c2c(nc3n2CCCN3Cc2ccccc2)n(C)c1=O	> 35 µM (inactive)
COc1ccccc1-c1cc(C(F)(F)F)nc(S(=O)(=O)CCCC(=O)NCc2ccc(F)cc2)n1	9.53 µM
O=C(c1ccc(OC2CCN(Cc3ccc(F)cc3)CC2)cc1)N1CCCC1	> 35 µM (inactive)
Cc1cc(C)n(-c2nc3ccccc3c(=O)n2OCC#N)n1	11.4 µM
Cc1ccc(OCCNC(=O)CCc2nc3sc4c(c3c(=O)[nH]2)CCCC4)cc1	> 35 µM (inactive)

Compound	EC50
COc1cccc(/C=N/Nc2nccnc2Cl)c1O	6.36 µM
Cc1c(Cl)cccc1NC(=S)N/N=C/c1ccccc1Cl	14.8 µM
C(=N\Nc1nc2ccccc2[nH]1)/c1cccc2nccnc12	15.8 µM
CSc1nc(C)cc(C)c1C#N	> 35 µM (inactive)
O=C(N/N=C/c1cc(Br)ccc1O)c1cccc(N2CCCC2=O)c1	13.5 µM
CCNc1nc(Cl)nc(NNC(=O)C(C)Oc2ccccc2)n1 (stereo unspecified)	> 35 µM (inactive)
O=C(N/N=C/C(Br)=C\c1ccccc1)c1n[nH]c2c1CCC2	7.85 µM
CCN(CC)CCCNC(=O)C1c2ccccc2C(=O)N(C)C1c1ccc(OC)cc1 (stereo unspecified)	> 35 µM (inactive)
CC(C)Cn1c(/C=N/Nc2nc3ccccc3[nH]2)nc2ccccc21	9.05 µM
CCCC(=O)NC(c1cccs1)c1cc(Cl)c2cccnc2c1O (stereo unspecified)	7.25 µM
CCCC1CCC(=C(C#N)C(N)=O)CC1 (stereo unspecified)	> 35 µM (inactive)
COc1ccccc1OCC(=O)N/N=C/c1c(O)ccc2ccccc12	6.2 µM
COc1ccc(-c2cc(C(F)(F)F)nc(S(=O)(=O)CCCC(=O)Nc3cc(C)on3)n2)cc1OC	> 35 µM (inactive)
Cc1nc2nc3c(cn2n1)C(=O)CC(c1ccccc1)C3 (stereo unspecified)	> 35 µM (inactive)
Oc1ccc(Cl)cc1CNCC1CCCO1 (stereo unspecified)	> 35 µM (inactive)
O=C(O)c1ccc2cccc(O)c2n1	> 35 µM (inactive)
Cc1nc([N+](=O)[O-])c(Br)n1Cc1ccc(Cl)c(Cl)c1	> 35 µM (inactive)
Cc1ccc(C)c(SCC(=O)OCC(=O)N2CC(C)OC(C)C2)c1 (stereo unspecified)	> 35 µM (inactive)
CCOC(=O)C1(C)NC(c2ccc(OC)cc2OC)C2C(=O)N(CC)C(=O)C21 (stereo unspecified)	> 35 µM (inactive)
Oc1ccc(/C=N/NC(=S)NC2CC3CCC2C3)cc1 (stereo unspecified)	> 35 µM (inactive)
CCC1CCCCN1Cc1c(O)ccc2c(=O)c(-c3ccccc3OC)coc12 (stereo unspecified)	> 35 µM (inactive)
COc1ccccc1/C=C/C(=O)c1ccccc1	> 35 µM (inactive)

Compound	EC50
COC(=O)CNC(=O)CSc1nnc2cc(C)c3ccccc3n12	> 35 µM (inactive)
CCCN(CCC)C(C)C(=O)NCC1(c2ccccc2)CCCC1 (stereo unspecified)	> 35 µM (inactive)
CCCn1c(SCC(=O)Nc2ccccc2CC)nnc1C(C)C	> 35 µM (inactive)
CN1CCN(Cc2nc3ccccc3c(=O)n2Cc2nc(-c3ccccc3F)cs2)CC1	8.66 µM
CC(C)c1ccc(NC(=O)CCc2ccccc2)cc1	> 35 µM (inactive)
Cc1cc(OC(C)C(=O)NNC(=O)Nc2ccc(F)cc2F)cc(C)c1Cl (stereo unspecified)	> 35 µM (inactive)
CCC(=NCc1cc(OC)cc(OC)c1)c1c(O)[nH]c(=O)[nH]c1=O	> 35 µM (inactive)
c1ccc(-c2nnc3sc(-c4cc5ccccc5o4)nn23)cc1	> 35 µM (inactive)
O=C(CSCC(=O)Nc1ccccc1)N/N=C/c1c(O)ccc2ccccc12	4.45 µM
CCOC(=O)c1c(C)nc2cc(C)ccn12	> 35 µM (inactive)
CCCCOC(=O)c1ccc(NC(=O)C(=O)NCc2cccnc2)cc1	> 35 µM (inactive)
CCOC(=O)c1c(S(=O)(=O)NCc2ccc(C)o2)c(C)n(C)c1C	> 35 µM (inactive)
CCOP(=O)(C#CC(C)(C)C)C1(O)CCCCC1 (stereo unspecified)	> 35 µM (inactive)
COc1cccc(Nc2n[nH]c(=S)s2)c1	> 35 µM (inactive)
ON=C1c2cc(OCCN3CCCCC3)ccc2-c2ccc(OCCN3CCCCC3)cc21	8.97 µM
O=C(N/N=C/c1cc(O)ccc1Br)c1cccnc1	> 35 µM (inactive)
O=C(NC1CCCC1)c1cc(-c2cccs2)on1	7.26 µM
COc1ccc(CNC(=O)CN(CC2CCCO2)C(=O)CNS(=O)(=O)c2ccc(C)cc2)cc1 (stereo unspecified)	> 35 µM (inactive)
CCCc1sc(N/N=C/c2ccccn2)nc1-c1ccc(F)cc1	6.01 µM
O=C(N/N=C/c1cc(Br)cc(Cl)c1O)c1ccc2c(c1)OCO2	> 35 µM (inactive)
CC1(C)CC(=O)C(C=NCCN2CCN(C(=S)Nc3cccc(Cl)c3)CC2)=C(O)C1	> 35 µM (inactive)
Cc1cc(Cl)n2c(nc3cc(F)c(F)cc32)c1C#N	> 35 µM (inactive)

Compound	EC50
Cc1ccc(NC(=S)N/C(=N/S(=O)(=O)c2ccccc2)c2ccccc2)cc1	> 35 µM (inactive)
CCCCNC(=O)CN1C(=O)COc2ccc(S(=O)(=O)N3CCCCCC3)cc21	> 35 µM (inactive)
CCCOc1ccc(/C=N/NC(=O)CSc2ccccn2)cc1OC	> 35 µM (inactive)
CC(C)C(=O)NC(c1cccc([N+](=O)[O-])c1)c1ccc2cccnc2c1O (stereo unspecified)	2.3 µM
Cc1nc(C)c(C(=O)N/N=C/c2cc(Br)ccc2O)s1	7.18 µM
CCOc1ccc(NC(=O)COc2ccccc2)c([N+](=O)[O-])c1	> 35 µM (inactive)
COc1ccccc1-c1cc(C(F)(F)F)nc(S(=O)(=O)CCCC(=O)NC(C)C)n1	> 35 µM (inactive)
CCOc1ccc(NC(=O)CC2C(=O)Nc3ccccc3N2C(=O)c2ccccc2)cc1 (stereo unspecified)	> 35 µM (inactive)
O=C(N/N=C\c1c(O)ccc2ccccc12)c1cncc(Br)c1	6.48 µM
Oc1c(CN2CCCCC2)cc(COCc2ccccc2)c2cccnc12	11.9 µM
CCn1cc(C(=O)NCC(OC)OC)c(=O)c2cc(S(=O)(=O)N3CCC(C)CC3)ccc21	> 35 µM (inactive)
COc1ccc(CNC(=S)N/N=C/c2ccc(O)c(OC)c2)cc1	> 35 µM (inactive)
Cc1oc(-c2ccc(Cl)cc2)cc1C(=O)/C(C#N)=C/Nc1cccc(OC(F)(F)F)c1	> 35 µM (inactive)
CCCn1c(SCC(=O)N2CCc3ccccc3C2)nc2c1c(=O)n(C)c(=O)n2C	> 35 µM (inactive)
O=C(CCc1ccccc1)Nc1ccnn1C1CCN(C/C=C/c2ccccc2)CC1	> 35 µM (inactive)
Cc1ccccc1NC(=O)c1ccccc1O	> 35 µM (inactive)
COc1cc(C(=O)N/N=C(\c2ccccc2)c2ccccn2)cc(OC)c1OC	11.3 µM
COc1ccc(CCNC(=O)c2cc(-c3ccco3)on2)cc1OC	10.8 µM
CC(=O)Nc1ccc(NC(=O)CCC(=O)OCC(=O)c2ccc(F)cc2)cc1	> 35 µM (inactive)
CN(CC(=O)Nc1ccccc1Oc1ccccc1)Cc1ccccc1F	> 35 µM (inactive)
CC(NC(=O)c1cc2c(s1)CS(=O)(=O)C2)c1ccccc1 (stereo unspecified)	> 35 µM (inactive)
O=C(N/N=C/c1cc(Br)ccc1OC(=O)c1ccc(Br)cc1)c1ccncc1	> 35 µM (inactive)

Compound	EC50
COc1ccc(C2NN=C(c3ccc(C)cc3)S2)cc1 (stereo unspecified)	> 35 µM (inactive)
CC(=O)Nc1ccc2c(c1)CCCC2=O	> 35 µM (inactive)
Cc1ccc(CNc2ccc3c(c2)nc(C)n3C)cc1	> 35 µM (inactive)
COc1ccc(OC)c(C2=Nn3c(nnc3-c3cc(C)[nH]n3)SC2)c1	> 35 µM (inactive)
O=C(O)c1ccc(N2C(=O)CSC2=S)cc1	> 35 µM (inactive)
CN1CCC2(CC1)N=C(c1ccc(F)cc1)C(=S)N2C(=O)c1ccc(C(C)(C)C)cc1	> 35 µM (inactive)
CN(C)C(=O)CSc1nc2ccccc2n1Cc1ccccc1	> 35 µM (inactive)
O=C(O)c1ccccc1Nc1ccc([N+](=O)[O-])cc1C(=O)O	> 35 µM (inactive)
C/C(=N\NC(=O)Cc1ccc(Cl)cc1)c1ccccn1	5.92 µM
CCCn1c2ccccc2c2cnn(CC(=O)NC3CCCC(C)C3C)c(=O)c21 (stereo unspecified)	7.26 µM
COc1ccc(C(CC(=O)NCc2ccccc2)Sc2n[nH]c(-c3ccccc3)n2)cc1 (stereo unspecified)	33 µM
CC1(C)CC(=O)C(CC2C(=O)CC(C)(C)CC2=O)C(=O)C1	> 35 µM (inactive)
Cc1cc(C)cc(N(CC(=O)Nc2ccccc2C(=O)N2CCOCC2)S(C)(=O)=O)c1	> 35 µM (inactive)
COC(=O)/C(C#N)=C/c1c(N2CCN(Cc3ccc4c(c3)OCO4)CC2)nc2c(C)cccn2c1=O	> 35 µM (inactive)
Nc1nonc1-n1nnc(C(=O)N/N=C/c2cc(Br)ccc2O)c1CSC1=NCCS1	29.6 µM
O=c1c2ccccc2nc(COc2ccccc2)n1/N=C/c1ccc(O)cc1O	9.68 µM
CCN(CC)c1ccc(/C=N/NC(=O)c2ccco2)c(O)c1	6.97 µM
CCNS(=O)(=O)c1ccc(NC(=O)c2cncc(Br)c2)cc1	> 35 µM (inactive)
